Laboratory results from US20080208179A1, “METHODS OF INCREASING SKIN PERMEABILITY BY TREATMENT WITH ELECTROMAGNETIC RADIATION” (Reliant Technologies, Inc., priority 2006, published 2008).

Legend:
Assay type in all cases: in vitro ADME
[1] = In vitro permeation of ascorbic acid through fractional laser treated ex vivo human skin (Example 7, 85 μm spot size); settings: for Cumulative permeation / Enhancement ratio (total uptake in treated sample/total uptake in control) / Retention / Total uptake: 90 min; for Normalized cumulative permeation at 10 mJ @ 2000 MTZ/cm2 relative to 20 mJ @ 1000 MTZ/cm2: by 90 min
Method: In vitro permeation studies were performed on untreated and treated human skin to determine if treatment of the skin with fractional laser radiation increased skin permeability to ascorbic acid.
A modified 1550 nm Fraxel® SR laser system was operated as previously described by Bedi et al., Lasers Surg Med, 2007 February; 39(2):145-55. Arrays of single mode Gaussian beams of 85 μm 1/e^2 diameter at incidence were delivered to the surface of the skin specimen in each treatment, using contact and non-contact tips. The contact tip abutted the specimen through a sapphire window through which the laser beam was irradiated. The non-contact tip omitted the sapphire window; thus, the laser incidence occurred at the air-tissue interface. The laser pulse energies tested for ascorbic acid uptake measurements were 10 and 20 mJ. For each 10 mJ treatment, 8 passes at 250 microscopic treatment zones (MTZs) per cm^2 were made at a constant velocity of 1.0 cm per second producing a final spot density of 2000 MTZs per cm^2; for each 20 mJ treatment, 4 passes at 250 microscopic treatment zones (MTZs) per cm^2 were made at a constant velocity of 1.0 cm per second producing a final spot density of 1000 MTZs per cm^2. These pulse energy and spot density combination parameters are similar to those used in a typical clinical NFR™ treatment session. Histologic examination was performed for pulse energies ranging from 6 to 40 mJ at a fixed spot size of 85 μm. The pulse durations ranged from 0.24 to 1.6 msec per pulse.
Topical vitamin C solution contained L-ascorbic acid 15% (VWR International, West Chester, Pa.), ferulic acid 0.5%, and vitamin E 1% buffered to a pH of 3.2±0.2 with triethanolamine (Lin et al, 2005). Ascorbic acid was freshly prepared avoiding light exposure just prior to each experiment.
(§1) The uptake studies were carried out using skin permeation systems (LGA, Inc., Berkeley, Calif.) and 500 μm thick skin grafts from freshly excised human abdominal skin. Non-laser treated skin was used as a control. Immediately after laser treatment, each skin sample was mounted on a permeation system whose donor compartment was then filled with ascorbic acid solution (Lee et al, 2003). The entire arrangement was incubated to simulate body temperature. Aliquots were drawn at 5, 10, 15, 30, 60, and 90 min from the diffusion chamber, and quantitatively analyzed for permeated ascorbic acid using high performance liquid chromatography (HPLC). After 90 min, each skin sample was washed thoroughly in saline, weighed, homogenized and centrifuged (Lee et al, 2003). This was followed by HPLC analysis to determine the retained ascorbic acid value. The measured retention was then normalized to the effective area of skin sample through which permeation occurred. Each experiment constituted a total of 5 individual runs (n=5).
The total uptake was taken as the sum of the permeated and retained ascorbic acid over the cross-sectional area of the skin through which uptake occurred. The permeation values were calculated at each time point and plotted as a cumulative value. The uptake enhancement ratio represents the total ascorbic acid uptake for laser treated skin divided by the total uptake for untreated skin at 90 min.

[2] = In vitro permeation of ascorbic acid through fractional laser treated ex vivo human skin (Example 6, 60 μm treatment zone size); settings: for Retention Ratio / Total Uptake Ratio: delivery mode not given; for Cumulative permeation / Enhancement ratio (total uptake by treatment/total uptake in control) / Retention / Total uptake: 90 min
Method: In vitro permeation studies were performed on untreated and treated human skin to determine if treatment of the skin with fractional laser radiation increased skin permeability to ascorbic acid. The treatment consisted of exposing the skin in vitro to fractional laser radiation. This study also evaluated the effect of using the laser radiation using the contact delivery mode and the non-contact delivery mode.
Ex vivo skin: All ex vivo laser treatments were performed using a 1550 nm laser system on freshly excised human abdominal skin (Fitzpatrick skin type II).
Laser parameters: Arrays of single mode Gaussian beams of 60 μm 1/e^2 diameter at incidence were delivered to the surface of the skin specimen in each treatment, using contact and non-contact tips. For the contact delivery mode, the laser radiation was delivered through a sapphire window in a contact tip which abutted the specimen. For the non-contact delivery mode, the laser radiation was delivered through a contact tip without the sapphire window; thus, the laser incidence occurred at the air-tissue interface. The laser pulse energies tested for ascorbic acid uptake measurements were 10 and 20 mJ. […]
Ascorbic acid formulation: Topical vitamin C solution contained L-ascorbic acid 15% (VWR International, West Chester, Pa.), ferulic acid 0.5%, and vitamin E 1% buffered to a pH of 3.2±0.2 with triethanolamine (Lin et al, 2005). Ascorbic acid was freshly prepared avoiding light exposure just prior to each experiment.
as §1, with “Ascorbic acid permeation studies: The uptake” for “The uptake”, “and 90 min, and quantitatively” for “and 90 min from the diffusion chamber, and quantitatively”
Data analysis: The total uptake was taken as the sum of the permeated and retained ascorbic acid. The permeation values were calculated at each time point and plotted as a cumulative value. The uptake enhancement ratio represents the total ascorbic acid uptake for laser treated skin divided by the total uptake for untreated skin at 90 min.

[3] = In vitro permeation of 5-Fluorouracil through fractional laser treated ex vivo human skin (Example 8)
Method: In vitro permeation studies were performed on untreated and treated ex vivo human skin to determine if treatment of the skin with fractional laser radiation increased skin permeability to a 0.5% (w/v) 5-Fluorourocil solution. The treatment was conducted using the methods outlined in Examples 6 and 7 using a Fraxel Re:store™ laser system (Reliant Technologies, Mountain View, Calif., USA). The treatment parameters used included a laser pulse energy of 10 mJ, a 60 μm incident optical spot size, and a final spot density of 2000 MTZ/cm^2. The skin graft thickness used was 500 μm. The experiment consisted of a total of 6 individual runs (n=6). The uptake study was conducted using an infinite dose regimen.
The total uptake was taken as the sum of the permeated and retained 5-Fluorouracil. The permeation values were calculated at each time point and plotted as a cumulative value in FIG. 16. Over the course of the study (24 hours), the uptake of 5-Fluorouracil from the untreated skin (control) remained below 0.2 mg/cm^2, while the uptake of 5-Fluorouracil from the laser treated skin approached 1.4 mg/cm^2 after 24 hours.

[4] = 1550 nm, 85 μm, 10 mJ, contact mode, 2000 MTZ/cm2
[5] = 1550 nm, 85 μm, 20 mJ, contact mode, 1000 MTZ/cm2
[6] = 1550 nm, 85 μm, 20 mJ, non-contact mode, 1000 MTZ/cm2
[7] = 1550 nm, 85 μm, non-contact mode, pulse energy 20 mJ, text b229 prints 10 mJ @ 2000 MTZ/cm2
[8] = control, non-laser treated skin
[9] = 20 mJ, 1000 TZ/cm2, contact mode
[10] = 20 mJ, 1000 TZ/cm2, non-contact mode
[11] = 1550 nm, 60 μm, 20 mJ, contact mode, 1000 TZ/cm2
[12] = 1550 nm, 60 μm, 20 mJ, non-contact mode, 1000 TZ/cm2
[13] = skin group not stated (sentence follows the control value)
[14] = 10 mJ, 60 μm spot size, 2000 MTZ/cm2, 0.5% (w/v) solution, n=6

For `O=C1O[C@H]([C@@H](O)CO)C(O)=C1O` [ascorbic acid, L-ascorbic acid], the “Improvement of uptake in non-contact mode over contact mode at identical laser parameters” value ([1]; 10 mJ @ 2000 MTZ/cm2) was roughly 4 ×, the “Improvement of uptake in non-contact mode over contact mode at identical laser parameters” value ([1]; 20 mJ @ 1000 MTZ/cm2) was roughly 3 × and the Cumulative permeation [1, 4] was 0.49 ± 0.07 mg. For the same molecule, the “Enhancement ratio (total uptake in treated sample/total uptake in control)” value [1, 4] was 6.6, the Retention [1, 4] was 0.22 ± 0.02 mg and the Total uptake [1, 4] was 0.90±0.07 mg/cm2. For the same molecule, the Cumulative permeation [1, 5] was 0.27 ± 0.10 mg, the “Enhancement ratio (total uptake in treated sample/total uptake in control)” value [1, 5] was 3.6 and the Retention [1, 5] was 0.12 ± 0.02 mg. The Total uptake [1, 5] was 0.49±0.14 mg/cm2, the Cumulative permeation [1, 6] was 0.90 ± 0.27 mg and the “Enhancement ratio (total uptake in treated sample/total uptake in control)” value [1, 6] was 10.3. It also gave a Retention [1, 6] of 0.19 ± 0.02 mg, a Total uptake [1, 6] of 1.40±0.31 mg/cm2 and a Cumulative permeation ([1]; 1550 nm, 85 μm, non-contact mode, pulse energy 20 mJ, text b227 prints 10 mJ @ 2000 MTZ/cm2) of 2.41 ± 0.44 mg. The Retention ([1]; 1550 nm, 85 μm, non-contact mode, pulse energy 20 mJ, text b228 prints 10 mJ @ 2000 MTZ/cm2) was 0.40 ± 0.09 mg, the “Enhancement ratio (total uptake in treated sample/total uptake in control)” value [1, 7] was 26.3 and the Total uptake [1, 7] was 3.58±0.54 mg/cm2. For the same molecule, the “Permeation into the diffusion chamber” value ([1]; all conditions of laser treatment tested) was “observed to permeate into the diffusion chamber”, the “Normalized cumulative permeation at 10 mJ @ 2000 MTZ/cm2 relative to 20 mJ @ 1000 MTZ/cm2” value ([1]; contact mode) was “approximately 2 ×” and the “Total uptake at 2000 MTZ/cm2 relative to 1000 MTZ/cm2 within the respective treatment mode” value ([1]; contact or non-contact, regardless of pulse energy (10 mJ or 20 mJ)) was “approximately two or more times”. For the same molecule, the Retention [1, 8] was 0.11 ± 0.01 mg, the Total uptake [1, 8] was 0.14±0.01 mg/cm2 and the “Normalized cumulative permeation at 10 mJ @ 2000 MTZ/cm2 relative to 20 mJ @ 1000 MTZ/cm2” value ([1]; non-contact mode) was “more than twice”. For the same molecule, the “Permeation measured by HPLC” value ([1]; non-irradiated ex vivo skin, up to 90 min after application) was “no permeation”, the “Time until permeation was demonstrated” value ([1]; skin treated at pulse energies of 10 mJ and 20 mJ, contact mode, FIG. 13) was no more than 5 min and the “Retention Ratio” value ([2]; 10 mJ, 1000 TZ/cm2) was 1.8. The “Total Uptake Ratio” value ([2]; 10 mJ, 1000 TZ/cm2) was 2.9, the “Retention Ratio” value ([2]; 10 mJ, 2000 TZ/cm2) was 2.0 and the “Total Uptake Ratio” value ([2]; 10 mJ, 2000 TZ/cm2) was 4.2. For the same molecule, the “Retention Ratio” value ([2]; 20 mJ, 500 TZ/cm2) was 1.3, the “Total Uptake Ratio” value ([2]; 20 mJ, 500 TZ/cm2) was 7.0 and the “Retention Ratio (retained by treated skin / retained by control skin)” value [2, 9] was 2.1. The “Total Uptake Ratio (treated skin / control skin)” value [2, 9] was 5.3, the “Retention Ratio (retained by treated skin / retained by control skin)” value [2, 10] was 3.8 and the “Total Uptake Ratio (treated skin / control skin)” value [2, 10] was 9.6. For the same molecule, the “Retention Ratio” value ([2]; 20 mJ, 1000 TZ/cm2) was 3.8, the “Total Uptake Ratio” value ([2]; 20 mJ, 1000 TZ/cm2) was 9.6 and the “Cumulative permeation over time, non-contact mode compared with contact mode” value ([2]; 20 mJ, FIG. 12) was “higher permeation levels”. For the same molecule, the Cumulative permeation [2, 11] was 0.20 ± 0.03 mg, the “Enhancement ratio (total uptake by treatment/total uptake in control)” value [2, 11] was 5.3 and the Retention [2, 11] was 0.13 ± 0.01 mg. For the same molecule, the Total uptake [2, 11] was 0.42 ± 0.06 mg/cm2, the Cumulative permeation [2, 12] was 0.37 ± 0.14 mg and the “Enhancement ratio (total uptake by treatment/total uptake in control)” value [2, 12] was 9.6. The Retention [2, 12] was 0.24 ± 0.03 mg, the Total uptake [2, 12] was 0.77 ± 0.18 mg/cm2 and the Cumulative permeation [2, 8] was “below”. For the same molecule, the Retention [2, 8] was 0.06 ± 0.01 mg, the Total uptake [2, 8] was 0.08 ± 0.01 mg/cm2 and the “Share of the total uptake contributed by permeation” value [2, 13] was roughly 70%. For the same molecule, the “Share of the total uptake contributed by retention” value [2, 13] was “Approximately 30%”.
Molecule `O=c1[nH]cc(F)c(=O)[nH]1` [5-Fluorouracil] has a Permeation, Ratio ± Standard Deviation [3, 14] of 37.7 ± 10.6, a Retention, Ratio ± Standard Deviation [3, 14] of 2.4 ± 0.8 and an Uptake, Ratio ± Standard Deviation [3, 14] of 20.3 ± 5.3. For the same molecule, the Uptake ([3]; laser treated skin, 10 mJ, 60 μm, 2000 MTZ/cm2, after 24 hours) was roughly 1.4 mg/cm^2 and the Uptake ([3]; untreated skin (control), over 24 hours) was “below 0.2 mg/cm^2”.
